Assay results published in article PMC4153544, “Antidiabetic Property of Symplocos cochinchinensis Is Mediated by Inhibition of Alpha Glucosidase and Enhanced Insulin Sensitivity” (PLoS ONE, 2014).
In brackets after ≈: the same amount, converted by molar mass.

Target: T1, rat intestinal alpha glucosidase
T1 construct: gene Si; rat intestinal alpha-glucosidase preparation
Test: alpha-glucosidase inhibition assay
Assay type: biochemical
Details: standard; rat intestinal enzyme

IC50: 49.78 ± 1.45 µg/mL (≈ 77.1 µM)
SMILES: C[C@H]1O[C@H](O[C@H]2[C@H](O)[C@@H](O)[C@@H](O[C@H]3[C@H](O)[C@@H](O)C(O)O[C@@H]3CO)O[C@@H]2CO)[C@H](O)[C@@H](O)[C@@H]1N[C@H]1C=C(CO)[C@@H](O)[C@H](O)[C@H]1O (stereo partly shown) [acarbose]
